Measured values: patent US20240343712A1, “SOLID-STATE FORMS OF 2-(3-(4-(1H-INDAZOL-5-YLAMINO)QUINAZOLIN-2-YL)PHENOXY)-N-ISOPROPYLACETAMIDE METHANE SULFONIC ACID SALT” (Sandoz AG, priority 2021, published 2024)

Experiments:
[1] = Gravimetric moisture sorption (GMS); format: physicochemical; conditions: (25 ± 0.1)° C.; for Comment (hygroscopicity / behaviour upon moisture contact) / Δm (0-80% RH): 0-80% RH; for Δm (0-80% RH): gravimetric moisture sorption
Procedure: Moisture sorption isotherms were recorded with an SPSx-1μ moisture sorption analyzer (ProUmid, Ulm). The measurement cycle was started at ambient relative humidity (RH) of 40%. Relative humidity was then decreased to 5% RH in 5% steps, followed by a further decrease to 3% RH and to 0% RH. Afterwards RH was increased from 0% to 90% in a sorption cycle and decreased to 0% in a desorption cycle in 5% steps. Finally RH was increased from 0 to 40% in 5% steps.
The time per step was set to a minimum of 2 hours and a maximum of 6 hours. If an equilibrium condition with a constant mass of +0.01% within 1 hour was reached before the maximum time for all examined samples the sequential humidity step was applied before the maximum time of 6 hours. If no equilibrium was achieved the consecutive humidity step was applied after the maximum time of 6 hours. The temperature was 25±0.1° C.

[2] = Thermogravimetric analysis (TGA); format: physicochemical; conditions: for stability against temperature stress: DSC and TGA, Examples 7 and 8
Procedure: TGA was performed on a Mettler TGA/DSC 1 instrument. The samples (5.15 mg Form I, 5.69 Form II, 3.97 mg Form HyA, and 8.55 mg Form HyB) were each heated in a 100 microliter aluminium pan closed with an aluminium lid from 25 to 300° C. at a rate of 10 K/min. The lid was automatically pierced at the beginning of the measurement. Nitrogen (purge rate 50 mL/min) was used as purge gas.

Row | SMILES | Comment (hygroscopicity / behaviour upon moisture contact) [1] | Δm (0-80% RH) [1] | stability against temperature stress [2] | also measured
1 | CC(C)NC(=O)COc1cccc(-c2nc(Nc3ccc4[nH]ncc4c3)c3ccccc3n2)c1.CS(=O)(=O)O [Amorphous mesylate, 2-(3-(4-(1H-indazol-5-ylamino)quinazolin-2-yl)phenoxy)-N-isopropylacetamide methane sulfonic acid] | Very hygroscopic | +21.2 w % w-% | – | Comment (hygroscopicity / behaviour upon moisture contact) ([1]; listed as amorphous belumosudil mesylate): moderately hygroscopic
2 | CC(C)NC(=O)COc1cccc(-c2nc(Nc3ccc4[nH]ncc4c3)c3ccccc3n2)c1.CS(=O)(=O)O [Mesylate Form HyA, 2-(3-(4-(1H-indazol-5-ylamino)quinazolin-2-yl)phenoxy)-N-isopropylacetamide methane sulfonic acid] | – | – | – | Relative humidity of dehydration (release of crystal water) [1]: Dehydration below 3% RH; Δm (0-130° C.), TGA mass loss ([2]; 0-130° C., 10 K/min, nitrogen): Δm (0-130° C.) = 5.97%, corresponds to a dihydrate
3 | CC(C)NC(=O)COc1cccc(-c2nc(Nc3ccc4[nH]ncc4c3)c3ccccc3n2)c1.CS(=O)(=O)O [Mesylate Form HyB, 2-(3-(4-(1H-indazol-5-ylamino)quinazolin-2-yl)phenoxy)-N-isopropylacetamide methane sulfonic acid] | – | – | – | Δm (0-140° C.), TGA mass loss ([2]; 0-140° C., 10 K/min, nitrogen): Δm (0-140° C.) = 3.19%, corresponds to a monohydrate
4 | CC(C)NC(=O)COc1cccc(-c2nc(Nc3ccc4[nH]ncc4c3)c3ccccc3n2)c1.CS(=O)(=O)O [Mesylate Form I, 2-(3-(4-(1H-indazol-5-ylamino)quinazolin-2-yl)phenoxy)-N-isopropylacetamide methane sulfonic acid] | Slightly hygroscopic | +1.9 w-% | stable against temperature stress | Comment (hygroscopicity / behaviour upon moisture contact) ([1]; listed as belumosudil mesylate Form I): only slightly hygroscopic; Δm (0-250° C.), TGA mass loss ([2]; 0-250° C., 10 K/min, nitrogen): Δm (0-250° C.) = 0.87%, anhydrate
5 | CC(C)NC(=O)COc1cccc(-c2nc(Nc3ccc4[nH]ncc4c3)c3ccccc3n2)c1.CS(=O)(=O)O [Mesylate Form II, 2-(3-(4-(1H-indazol-5-ylamino)quinazolin-2-yl)phenoxy)-N-isopropylacetamide methane sulfonic acid] | Slightly hygroscopic | +1.4 w-% | stable against temperature stress | Comment (hygroscopicity / behaviour upon moisture contact) ([1]; listed as Form II): only slightly hygroscopic; Δm (0-100° C.), TGA mass loss ([2]; 0-100° C., 10 K/min, nitrogen): Δm (0-100° C.) = 0.32%, anhydrate
